Legend:
[1] = tested on: patient with a past history of both eclampsia and HELLP syndrome; experiment: Tacrolimus monotherapy in a patient with past history of eclampsia and HELLP syndrome (Example 4); type: in vivo, human; settings: for ALT (U/L) / AST (U/L) / Cr / Hb / LDH (U/L) / Plt (10^4/uL) / WBC: blood examination, with tacrolimus treatment
Description: The patient was a person (y.o.) […] with a past history of both eclampsia and HELLP syndrome. During the first pregnancy when the patient was […], they complained of physical deconditioning from early in their pregnancy. […] Sudden aggravation of the edema, proteinuria and hypertension appeared at 18 weeks gestation, at which time they were diagnosed with preeclampsia. HELLP syndrome and eclampsia occurred at 20 weeks gestation and a stillbirth required an emergency cesarean section. After delivery of the baby, they had severe complications such as pulmonary edema, disseminated intravascular coagulation, and intraperitoneal bleeding. They were medicated via an artificial respirator, and received albumin and a blood transfusion (Table 6). […] Laboratory findings related to infertility such as antiphospholipid syndrome (anti-CL IgG Ab, anti-CL IgM Ab, anti-β2GP-1 Ab, anti-PS/PT Ab, anti-PE IgG Ab, anti-PE IgM Ab), autoimmune disease (ANA and anti-DNA Ab), and disorders of blood coagulation (protein S activity, protein C activity, factor XII activity) were all negative. Although no obvious immunological abnormalities of the Th1(CD4^+IFN-γ+)/Th2 (CD4+IL-4^+) cell ratio (15.2/2.1) in CD4 positive cells (normal range, <10.3) were observed before pregnancy^46, it was assumed that maternal immunity would be activated by the embedding of a fertilized ovum (recognition of fetal antigens) and the abnormalities of maternal-fetal immunity may have inhibited placenta construction and caused fetal growth retardation and hypertension. The patient was treated with 1 mg/day of tacrolimus to control the maternal-fetal immunity. This patient received a monotherapy of tacrolimus without a concomitant treatment of a low dose of aspirin, which is often used as an anti-platelet agent for HDP^47. The course of the pregnancy was stable until the 3rd trimester, and no significant symptoms were observed during the 2nd trimester, at which point HELLP syndrome occurred in their previous pregnancy. Clinical signs of HELLP syndrome rapidly appeared, however, at 33 weeks gestation. A decrease in the Th1 and Th2 cell populations in CD4 positive cells and a reduction in the activity of NK cells over time post-partum were observed, which confirms that the tacrolimus regimen exerted sufficient suppressive effect on those cells, whereas the activity of NK cells was elevated at 32 weeks gestation. A possibility was speculated that NK cell activity was stimulated when a large number of fetal antigens were transferred to the maternal blood circulation after the suppression of the NK cells by the 1 mg/day dose of tacrolimus became insufficient in the 3rd trimester. […] Th1 and Th2 cell populations in CD4 positive cells and the NK cell activity were measured to evaluate the patient's pathological condition. One of the parameters, NK cell activity, indicated an appearance of abnormal maternal-fetal immunity. Other parameters that can be used to evaluate the failure of maternal tolerance for a fetus and activation of maternal immune rejection against a fetus with inflammation include Treg cells, Th17 cells, cytokines, and chemokines^37-44.

[2] = tested on: women with a history of or susceptible to pregnancy-induced hypertension syndrome; experiment: Tacrolimus treatment of women at risk of pregnancy-induced hypertension syndrome (Example 3); type: in vivo, human
Protocol: Once pregnancy-induced hypertension syndrome develops, the possibility of experiencing repeated onset in the subsequent gestations is very high. The patients were evaluated through a transvaginal ultrasound examination, a Fallopian tube patency test, and hysteroscopy before an index ART cycle. […] Any women who had experienced miscarriage in the previous IVF cycle, who had received an IVF cycle, or who had received vaccination, all within three months, were excluded from the subjects. Any women with acquired or congenital thrombophilia were excluded from the subjects. All the patients were subjected to treatment with tacrolimus in the same manner as in Example 2. The dose of tacrolimus was 1 mg to 3 mg per day. The duration of administration of tacrolimus was from the time point immediately after establishment of pregnancy was confirmed by a pregnancy test, until the day of delivery, in all cases. In Case 1 and Case 3 described below, 3 mg of tacrolimus per day was administered everyday from the time point immediately after establishment of pregnancy was confirmed and until the second trimester of pregnancy, and 2 mg of tacrolimus per day was administered everyday from the third trimester of pregnancy until the delivery. In Case 2 described below, 2 mg of tacrolimus per day was administered everyday from the time point immediately after establishment of pregnancy was confirmed and until the delivery. The treatment was carried out in the same manner as in Example 2. The effects of administering tacrolimus were evaluated on the basis of whether the patients satisfactorily maintained the state of pregnancy without developing pregnancy-induced hypertension syndrome at predetermined time points between the second trimester and the third trimester of pregnancy. Cases in which the evaluation has been roughly completed are as follows.

[3] = Current pregnancy with tacrolimus treatment 1 mg/day
[4] = Current pregnancy with tacrolimus treatment 1 mg/day, after delivery
[5] = Current pregnancy with tacrolimus treatment 1 mg/day, before delivery

SMILES: C=CCC1/C=C(\C)CC(C)CC(OC)C2OC(O)(C(=O)C(=O)N3CCCCC3C(=O)OC(/C(C)=C/C3CCC(O)C(OC)C3)C(C)C(O)CC1=O)C(C)CC2OC (centres unmarked) [tacrolimus, 17-Allyl-1,14-dihydroxy-12-[2-(4-hydroxy-3-methoxycyclohexyl)-1-methylvinyl]-23,2 5-dimethoxy-13,19,21,27-tetramethyl-11,28-dioxa-4-azatricyclo[22.3.1.04,9]octacos-18-ene-2,3,10,16-tetraone]
- Fetal information: fetal growth [1, 3]: −1.9 SD
- start of proteinuria (weeks gstation) [1, 3]: 33 weeks gstation
- Symptoms: edema [1, 4]: slight
- Symptoms: hypertension [1, 4]: transient
- complications after deliverly [1, 4]: none
- Symptoms: edema [1, 5]: slight
- Symptoms: hypertension [1, 5]: not observed
- ALT (U/L) ([1]; after delivery): 833 U/L
- AST (U/L) ([1]; after delivery): 898 U/L
- Cr ([1]; after delivery): 0.59 mg/dL
- Hb ([1]; after delivery): 10.5 g/dL
- LDH (U/L) ([1]; after delivery): 1995 U/L
- Plt (10^4/uL) ([1]; after delivery): 2.2 10^4/uL
- WBC ([1]; after delivery): 8220 cells/µL
- ALT (U/L) ([1]; before delivery): 71 U/L
- AST (U/L) ([1]; before delivery): 65 U/L
- Cr ([1]; before delivery): 1 mg/dL
- Hb ([1]; before delivery): 11 g/dL
- LDH (U/L) ([1]; before delivery): 316 U/L
- Plt (10^4/uL) ([1]; before delivery): 10 10^4/uL
- WBC ([1]; before delivery): 8280 cells/µL
- Th1 and Th2 cell populations in CD4 positive cells ([1]; during pregnancy, with time, tacrolimus 1 mg/day (FIG. 1)): decrease
- NK cell activity ([1]; during pregnancy, normal range 18-40%, tacrolimus 1 mg/day (FIG. 1)): decreased in the 2nd trimester and then obviously increased at 32 weeks gestation
- course of the pregnancy stable with no emergence of proteinuria, edema or hypertension until ([1]; tacrolimus 1 mg/day monotherapy): 32 weeks gestation
- Clinical signs of HELLP syndrome appeared at ([1]; tacrolimus 1 mg/day monotherapy, previous pregnancy: 20 weeks gestation): 33 weeks gestation
- prolonged the timing of onset of HELLP syndrome ([1]; tacrolimus 1 mg/day versus previous pregnancy without treatment): about 13 weeks gestation
- increase in blood pressure ([2]; Case 1 (intrauterine fetal death in week 38 in previous gestation), 3 mg per day until second trimester, 2 mg per day from third trimester until delivery): did not experience an increase in blood pressure
- gave birth to a healthy baby in week ([2]; Case 1, 3 mg per day until second trimester, 2 mg per day from third trimester until delivery): 39 week
- increase in blood pressure ([2]; Case 2 (twin pregnancy with infertilitas and positive anti-phosphorus antibody), 2 mg per day until delivery): did not experience an increase in blood pressure
- gave birth to a healthy baby in week ([2]; Case 2, 2 mg per day until delivery, premature rupture of the membrane caused by cough, premature birth of twin): 35 week
- edema and tendency of blood pressure increase ([2]; Case 3 (intrauterine fetal death in week 32 in previous gestation), 3 mg per day until second trimester, 2 mg per day from third trimester): without edema and without a tendency of blood pressure increase
- currently passing week of pregnancy ([2]; Case 3, 3 mg per day until second trimester, 2 mg per day from third trimester): 34 week

Source: patent publication US12576070B2, “Medicine for improving state of pregnancy, and use thereof” (priority 2014, dated 2026)
